Test results: PubChem BioAssay (NCI)
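All cell lines were grown in 96-well plates and treated with compound for 48 hours. At the TGI there is no net growth.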

Columns and labels:
Assay in all cases: growth of human tumour cells (NCI), 48 h
[1] = system: MOLT-4 leukemia
[2] = system: KM12 colon
[3] = system: SF-268 CNS
[4] = system: NCI-H23 lung
[5] = system: U251 CNS
[6] = system: T-47D breast
[7] = system: MDA-N
[8] = system: HOP-62 NSCLC
[9] = system: SF-295 CNS
[10] = system: SK-OV-3 ovarian
[11] = system: HCC-2998 colon
[12] = system: HCT-15 colon
[13] = system: NCI/ADR-RES ovarian
[14] = system: UACC-257 melanoma
[15] = system: SNB-75 CNS
[16] = system: A498 renal
[17] = system: SK-MEL-2 melanoma
[18] = system: IGROV1 ovarian
[19] = system: HT29 colon
[20] = system: K-562 leukemia
[21] = system: 786-0 renal
[22] = system: SF-539 CNS
[23] = system: SW-620 colon
[24] = system: BT-549 breast
[25] = system: PC-3 prostate
[26] = system: EKVX NSCLC
[27] = system: OVCAR-8 ovarian
[28] = system: ACHN renal
[29] = system: RPMI-8226 leukemia
[30] = system: MCF7 breast
[31] = system: A549 NSCLC
[32] = system: NCI-H522 lung
[33] = system: COLO 205 colon
[34] = system: M14 melanoma
[35] = system: OVCAR-4 ovarian
[36] = system: CCRF-CEM leukemia
[37] = system: NCI-H460 lung
[38] = system: RXF 393 renal
[39] = system: DU-145 prostate
[40] = system: OVCAR-3 ovarian
[41] = system: HCT-116 colon
[42] = system: SK-MEL-28 melanoma
[43] = system: CAKI-1 renal
[44] = system: HL-60(TB) leukemia
[45] = system: SK-MEL-5 melanoma
[46] = system: HOP-92 NSCLC
[47] = system: MALME-3M melanoma
[48] = system: TK-10 renal
[49] = system: SNB-19 CNS
[50] = system: OVCAR-5 ovarian
[51] = system: UACC-62 melanoma
[52] = system: SR leukemia
[53] = system: NCI-H226 lung
[54] = system: SN12C renal
[55] = system: HS 578T breast
[56] = system: LOX IMVI melanoma
[57] = system: MDA-MB-435
[58] = system: UO-31 renal
[59] = system: MDA-MB-231 breast

Cc1cc(N(CCC#N)CCC#N)ccc1/C=N/NC(=O)c1ccccc1
TGI [1]: > 100 µM | TGI [2]: > 100 µM | TGI [3]: > 100 µM | TGI [4]: > 100 µM | TGI [5]: > 100 µM | TGI [6]: > 100 µM | TGI [7]: 10.6 µM | TGI [8]: > 100 µM | TGI [9]: > 100 µM | TGI [10]: > 100 µM | TGI [11]: 55.1 µM | TGI [12]: > 100 µM | TGI [13]: 36.1 µM | TGI [14]: > 100 µM | TGI [15]: > 100 µM | TGI [16]: 65.4 µM | TGI [17]: > 100 µM | TGI [18]: > 100 µM | TGI [19]: 14.2 µM | TGI [20]: > 100 µM | TGI [21]: > 100 µM | TGI [22]: 47.5 µM | TGI [23]: > 100 µM | TGI [24]: > 100 µM | TGI [25]: > 100 µM | TGI [26]: > 100 µM | TGI [27]: > 82.8 µM | TGI [28]: > 100 µM | TGI [29]: > 100 µM | TGI [30]: > 100 µM | TGI [31]: > 100 µM | TGI [32]: 39.3 µM | TGI [33]: > 100 µM | TGI [34]: > 100 µM | TGI [35]: > 100 µM | TGI [36]: 98.1 µM | TGI [37]: > 100 µM | TGI [38]: > 100 µM | TGI [39]: > 86.2 µM | TGI [40]: > 84 µM | TGI [41]: > 92.6 µM | TGI [42]: > 100 µM | TGI [43]: > 100 µM | TGI [44]: > 27.2 µM | TGI [45]: > 100 µM | TGI [46]: > 100 µM | TGI [47]: > 100 µM | TGI [48]: > 100 µM | TGI [49]: > 100 µM | TGI [50]: > 100 µM | TGI [51]: > 100 µM | TGI [52]: > 43.2 µM | TGI [53]: 84.1 µM | TGI [54]: > 100 µM | TGI [55]: > 56.5 µM | TGI [56]: > 100 µM | TGI [57]: > 38.9 µM | TGI [58]: > 100 µM | TGI [59]: > 81.3 µM

CC1(C)Oc2ccccc2OC1O (stereo unspecified)
TGI [1]: > 100 µM | TGI [2]: > 100 µM | TGI [3]: > 100 µM | TGI [4]: > 100 µM | TGI [5]: > 100 µM | TGI [6]: > 100 µM | TGI [7]: > 100 µM | TGI [8]: > 100 µM | TGI [9]: > 100 µM | TGI [10]: > 100 µM | TGI [11]: > 100 µM | TGI [12]: > 100 µM | TGI [13]: > 100 µM | TGI [14]: > 100 µM | TGI [15]: > 100 µM | TGI [16]: > 100 µM | TGI [17]: > 100 µM | TGI [18]: > 100 µM | TGI [19]: > 100 µM | TGI [20]: > 100 µM | TGI [21]: > 100 µM | TGI [22]: > 100 µM | TGI [23]: > 100 µM | TGI [24]: > 100 µM | TGI [25]: > 100 µM | TGI [26]: > 100 µM | TGI [27]: > 100 µM | TGI [28]: > 100 µM | TGI [29]: > 100 µM | TGI [30]: > 100 µM | TGI [31]: > 100 µM | TGI [32]: > 100 µM | TGI [33]: > 100 µM | TGI [34]: > 100 µM | TGI [35]: > 100 µM | TGI [36]: > 100 µM | TGI [37]: > 100 µM | TGI [38]: > 100 µM | TGI [39]: > 100 µM | TGI [40]: > 100 µM | TGI [41]: > 100 µM | TGI [42]: > 100 µM | TGI [43]: > 100 µM | TGI [44]: > 100 µM | TGI [45]: > 100 µM | TGI [46]: > 100 µM | TGI [47]: > 100 µM | TGI [48]: > 100 µM | TGI [49]: > 100 µM | TGI [50]: > 100 µM | TGI [51]: > 100 µM | TGI [52]: > 100 µM | TGI [53]: > 100 µM | TGI [54]: > 100 µM | TGI [55]: > 100 µM | TGI [56]: > 100 µM | TGI [57]: > 100 µM | TGI [58]: > 100 µM | TGI [59]: > 100 µM

Cc1ccc(NC(=O)CC(=O)N2N=C(N(C)c3ccccc3)CC2c2ccccc2)cc1 (stereo unspecified)
TGI [1]: > 100 µM | TGI [2]: > 100 µM | TGI [3]: > 100 µM | TGI [4]: > 100 µM | TGI [5]: > 100 µM | TGI [6]: > 100 µM | TGI [7]: > 100 µM | TGI [8]: > 100 µM | TGI [9]: > 100 µM | TGI [10]: > 100 µM | TGI [11]: > 100 µM | TGI [12]: > 100 µM | TGI [13]: > 100 µM | TGI [14]: > 100 µM | TGI [15]: 77.9 µM | TGI [16]: > 100 µM | TGI [17]: > 100 µM | TGI [18]: > 100 µM | TGI [19]: > 100 µM | TGI [20]: > 100 µM | TGI [21]: > 100 µM | TGI [22]: > 100 µM | TGI [23]: > 100 µM | TGI [24]: > 100 µM | TGI [25]: > 100 µM | TGI [26]: > 100 µM | TGI [27]: > 100 µM | TGI [28]: > 100 µM | TGI [29]: > 100 µM | TGI [30]: > 100 µM | TGI [31]: > 100 µM | TGI [32]: > 100 µM | TGI [33]: > 100 µM | TGI [34]: > 100 µM | TGI [35]: > 100 µM | TGI [36]: > 100 µM | TGI [37]: > 100 µM | TGI [38]: > 100 µM | TGI [39]: > 100 µM | TGI [40]: > 100 µM | TGI [41]: > 100 µM | TGI [42]: > 100 µM | TGI [43]: > 100 µM | TGI [44]: > 100 µM | TGI [45]: > 100 µM | TGI [46]: > 100 µM | TGI [47]: > 100 µM | TGI [48]: > 100 µM | TGI [49]: > 100 µM | TGI [50]: > 100 µM | TGI [51]: > 100 µM | TGI [52]: > 100 µM | TGI [53]: > 100 µM | TGI [54]: > 100 µM | TGI [55]: > 100 µM | TGI [56]: > 100 µM | TGI [57]: > 100 µM | TGI [58]: > 100 µM | TGI [59]: > 100 µM

OC(COc1cccc2ccccc12)CN1CCOCC1 (stereo unspecified)
TGI [1]: > 100 µM | TGI [2]: > 100 µM | TGI [3]: > 100 µM | TGI [4]: > 100 µM | TGI [5]: > 100 µM | TGI [6]: > 100 µM | TGI [7]: > 100 µM | TGI [8]: > 100 µM | TGI [9]: > 100 µM | TGI [10]: > 100 µM | TGI [11]: > 100 µM | TGI [12]: > 100 µM | TGI [13]: > 100 µM | TGI [14]: > 100 µM | TGI [15]: > 100 µM | TGI [16]: > 100 µM | TGI [17]: > 100 µM | TGI [18]: > 100 µM | TGI [19]: > 100 µM | TGI [20]: > 100 µM | TGI [21]: > 100 µM | TGI [22]: > 100 µM | TGI [23]: > 100 µM | TGI [24]: > 100 µM | TGI [25]: > 100 µM | TGI [26]: > 100 µM | TGI [27]: > 100 µM | TGI [28]: > 100 µM | TGI [29]: > 100 µM | TGI [30]: > 100 µM | TGI [31]: > 100 µM | TGI [32]: > 100 µM | TGI [33]: > 100 µM | TGI [34]: > 100 µM | TGI [35]: > 100 µM | TGI [36]: > 100 µM | TGI [37]: > 100 µM | TGI [38]: > 100 µM | TGI [39]: > 100 µM | TGI [40]: > 100 µM | TGI [41]: > 100 µM | TGI [42]: > 100 µM | TGI [43]: > 100 µM | TGI [44]: > 100 µM | TGI [45]: > 100 µM | TGI [46]: 98.9 µM | TGI [47]: > 100 µM | TGI [48]: > 100 µM | TGI [49]: > 100 µM | TGI [50]: > 100 µM | TGI [51]: > 100 µM | TGI [52]: > 100 µM | TGI [53]: > 100 µM | TGI [54]: > 100 µM | TGI [55]: > 100 µM | TGI [56]: > 100 µM | TGI [57]: > 100 µM | TGI [58]: > 100 µM | TGI [59]: > 100 µM
